Results taken from publication PMC6274316 (Molecules, 2016).
Entries after “also recorded” stand apart in the source; their conditions may differ. Marks after values point to notes of the source that are not given here.

What was measured:
[1] = system: ADP-induced platelet aggregation; test: Inhibition of ADP-induced platelet aggregation in rats ex vivo (Born's method); parameters: species or system rat; details: for Platelet Aggregation (%): male Wistar rats, ADP 1.0 μM, mean ± SD n = 6; for antiplatelet effect (in words): rat ex vivo
Procedure: Two hours after administration, rats were anesthetized using sodium pentobarbital and blood samples collected from the abdominal aorta for platelet aggregation tests using Born’s method. ADP (1.0 μM, Sigma-Aldrich, Co., St. Louis, MO, USA) was used as agonist for platelet aggregation. Platelet aggregation was measured using a coagulation analyzer (NJ4, Beijing Precil Instrument Company, Beijing, China).

[2] = rat; cited from earlier work
[3] = system: CYP2C19; details: cited from earlier work
[4] = rat, 1000 ng/mL
Procedure: Blood samples (100 μL) were collected every 10 min over 120 min, mixed with methanol (950 μL), water (50 μL) and an internal standard (IS) solution (diazepam, 100 μL, 100 ng/mL) and centrifuged at low temperature at 13,000 rpm. […] This was carried out using an Agilent 1100 Series HPLC system (degasser, pump, auto sampler, and column oven, Agilent Technologies, Santa Clara, CA, USA) coupled to an AB SCIEX Qtrap 2000 mass spectrometer (Applied Biosystems Sciex, Ottawa, ON, Canada) with an ESI source operated in the positive ion mode. Data acquisition and integration were performed by Analyst software (version 1.3.2, Applied Biosystems Sciex, Ottawa, ON, Canada). Chromatography was performed on a ZORBAX Extend-C18 column (150 mm × 4.6 mm i.d., 5 μm, Agilent Technologies, Santa Clara, CA, USA) maintained at 40 °C using methanol and 0.1% aqueous formic acid (20:80, v/v) as mobile phase delivered at a flow rate of 1.0 mL/min. The injection volume was 20 μL. A 50:50 split of the column eluent was made by means of a T-piece. The mass spectrometer was operated at unit resolution for Q1 and Q3 in the multiple reaction monitoring (MRM) mode with a dwell time of 200 ms per MRM channel. […] QC samples were prepared independently at concentrations of 3, 30, and 800 ng/mL in the same way. […]

[5] = system: esterases; details: cited from earlier work
[6] = ex vivo 2 h after oral dose 7.8 μmol/kg

With Cl.[2H]C([2H])([2H])OC(=O)[C@H](c1ccccc1Cl)N1CCc2sc(OC(=O)CC)cc2C1 [Compound 10b, (S)-5-(1-(2-Chlorophenyl)-2-(methoxy-d3)-2-oxoethyl)-4,5,6,7-tetrahydrothieno[3,2-c]pyridin-2-yl propionate hydrochloride] the “Platelet Aggregation (%)” value [1, 6] was 24.9 ± 9.7% and the “antiplatelet effect (in words)” value ([1]; oral dose 7.8 μmol/kg) was “potent antiplatelet activity”.
In the case of [2H]C([2H])([2H])OC(=O)[C@H](c1ccccc1Cl)N1CCc2sc(OC(=O)CCC)cc2C1 [Compound 10c, (S)-5-(1-(2-Chlorophenyl)-2-(methoxy-d3)-2-oxoethyl)-4,5,6,7-tetrahydrothieno[3,2-c]pyridin-2-yl butyrate], the “Platelet Aggregation (%)” value [1, 6] is reported as 29.9 ± 9.5% and the “antiplatelet effect (in words)” value ([1]; oral dose 7.8 μmol/kg) is reported as “potent antiplatelet activity”.
For [2H]C([2H])([2H])OC(=O)[C@H](c1ccccc1Cl)N1CCC2SC(=O)C=C2C1 (stereo partly drawn) [Compound 9, Methyl-d3 (2S)-2-(2-chlorophenyl)-2-(2-oxo-2,6,7,7a-tetrahydrothieno[3,2-c]pyridin-5(4H)-yl)acetate], the “Platelet Aggregation (%)” value [1, 6] was 21.2 ± 7.6% and the “antiplatelet effect (in words)” value ([1]; oral dose 7.8 μmol/kg) was “potent antiplatelet agent”.
For [2H]C([2H])([2H])OC(=O)[C@@H](c1ccccc1Cl)N1CCc2sc(OC(C)=O)cc2C1 [Compound R-10a, Methyl-d3 (R)-2-(2-acetoxy-6,7-dihydrothieno[3,2-c]pyridin-5(4H)-yl)-2-(2chlorophenyl)acetate], the “Platelet Aggregation (%)” value [1, 6] was 57.4 ± 5.0% and the “antiplatelet effect (in words)” value ([1]; oral dose 7.8 μmol/kg) was “almost inactive”.
In the case of Cl.[2H]C([2H])([2H])OC(=O)[C@H](c1ccccc1Cl)N1CCc2sc(OC(=O)c3ccccc3)cc2C1 [Compound 10k, (S)-5-(1-(2-Chlorophenyl)-2-(methoxy-d3)-2-oxoethyl)-4,5,6,7-tetrahydrothieno[3,2-c]pyridin-2-yl benzoate hydrochloride], the “Platelet Aggregation (%)” value [1, 6] is reported as 43.6 ± 9.5%.
In the case of [2H]C([2H])([2H])OC(=O)[C@H](c1ccccc1Cl)N1CCc2sc(OC(=O)CCCCCCCCCCC)cc2C1 [Compound 10i, (S)-5-(1-(2-Chlorophenyl)-2-(methoxy-d3)-2-oxoethyl)-4,5,6,7-tetrahydrothieno[3,2-c]pyridin-2-yl laurate], the melting point is reported as 35.8 to 37.6 °C and the “Platelet Aggregation (%)” value [1, 6] is reported as 49.7 ± 4.0%.
In the case of [2H]C([2H])([2H])OC(=O)[C@H](c1ccccc1Cl)N1CCc2sc(OC(=O)C(C)(C)CC)cc2C1 [Compound 10h, (S)-5-(1-(2-Chlorophenyl)-2-(methoxy-d3)-2-oxoethyl)-4,5,6,7-tetrahydrothieno[3,2-c]pyridin-2-yl 2,2-dimethylbutanoate], the melting point is reported as 99.4 to 100.3 °C and the “Platelet Aggregation (%)” value [1, 6] is reported as 48.5 ± 6.7%.
For O=S(=O)(O)O.[2H]C([2H])([2H])OC(=O)[C@H](c1ccccc1Cl)N1CCc2sccc2C1 [Compound 8, Methyl-d3 (S)-2-(2-chlorophenyl)-2-(6,7-dihydrothieno[3,2-c]pyridin-5(4H)-yl)acetate bisulfate], the “Platelet Aggregation (%)” value [1, 6] was 36.6 ± 6.6% and the “antiplatelet effect (in words)” value ([1]; oral dose 7.8 μmol/kg) was “potent inhibitors”.
With [2H]C([2H])([2H])OC(=O)[C@H](c1ccccc1Cl)N1CCc2sc(OC(=O)C=Cc3ccccc3)cc2C1 [Compound 10j, (S)-5-(1-(2-Chlorophenyl)-2-(methoxy-d3)-2-oxoethyl)-4,5,6,7-tetrahydrothieno[3,2-c]pyridin-2-yl cinnamate] the melting point was 121.7 to 123.1 °C and the “Platelet Aggregation (%)” value [1, 6] was 56.4 ± 6.9%.
In the case of [2H]C([2H])([2H])OC(=O)[C@H](c1ccccc1Cl)N1CCc2sc(OC(=O)c3ccccc3C(F)(F)F)cc2C1 [Compound 10l, (S)-5-(1-(2-Chlorophenyl)-2-(methoxy-d3)-2-oxoethyl)-4,5,6,7-tetrahydrothieno[3,2-c]pyridin-2-yl 2-(trifluoromethyl)benzoate], the “Platelet Aggregation (%)” value [1, 6] is reported as 49.2 ± 4.6%.
For [2H]C([2H])([2H])OC(=O)[C@H](c1ccccc1Cl)N1CCc2sc(OC(C)=O)cc2C1 [Compound 10a, Methyl-d3 (S)-2-(2-acetoxy-6,7-dihydrothieno[3,2-c]pyridin-5(4H)-yl)-2-(2chlorophenyl)acetate], the “Platelet Aggregation (%)” value [1, 6] was 17.3 ± 8.2% and the “antiplatelet effect (in words)” value ([1]; oral dose 7.8 μmol/kg) was “potent inhibitors; also recorded: potent antiplatelet activity”.
For [2H]C([2H])([2H])OC(=O)[C@H](c1ccccc1Cl)N1CCc2sc(OC(=O)C(C)(C)C)cc2C1 [Compound 10f, (S)-5-(1-(2-Chlorophenyl)-2-(methoxy-d3)-2-oxoethyl)-4,5,6,7-tetrahydrothieno[3,2-c]pyridin-2-yl pivalate], the melting point was 105.4 to 107.1 °C and the “Platelet Aggregation (%)” value [1, 6] was 44.7 ± 4.1%.
For Cl.[2H]C([2H])([2H])OC(=O)[C@H](c1ccccc1Cl)N1CCc2sc(OC(=O)C(C)C)cc2C1 [Compound 10d, (S)-5-(1-(2-Chlorophenyl)-2-(methoxy-d3)-2-oxoethyl)-4,5,6,7-tetrahydrothieno[3,2-c]pyridin-2-yl isobutyrate hydrochloride], the melting point was 146.7 to 149.9 °C, the “Platelet Aggregation (%)” value [1, 6] was 36.3 ± 4.5% and the “antiplatelet effect (in words)” value ([1]; oral dose 7.8 μmol/kg) was “potent antiplatelet activity”.
With [2H]C([2H])([2H])OC(=O)[C@H](c1ccccc1Cl)N1CCc2sc(OC(=O)c3cccnc3)cc2C1 [Compound 10m, (S)-5-(1-(2-Chlorophenyl)-2-(methoxy-d3)-2-oxoethyl)-4,5,6,7-tetrahydrothieno[3,2-c]pyridin-2-yl nicotinate] the melting point was 92.1 to 94.8 °C, the “Platelet Aggregation (%)” value [1, 6] was 37.4 ± 6.7% and the “antiplatelet effect (in words)” value ([1]; oral dose 7.8 μmol/kg) was “strong potency; also recorded: potent antiplatelet activity”.
In the case of [2H]C([2H])([2H])OC(=O)[C@H](c1ccccc1Cl)N1CCc2sc(OC(=O)C3CC3)cc2C1 [Compound 10e, (S)-5-(1-(2-Chlorophenyl)-2-(methoxy-d3)-2-oxoethyl)-4,5,6,7-tetrahydrothieno[3,2-c]pyridin-2-yl cyclopro-panecarboxylate], the “Platelet Aggregation (%)” value [1, 6] is reported as 24.6 ± 10.0% and the “antiplatelet effect (in words)” value ([1]; oral dose 7.8 μmol/kg) is reported as “anomalously potent; also recorded: potent antiplatelet activity”.
In the case of COC(=O)[C@H](c1ccccc1Cl)N1CCc2sc(OC(C)=O)cc2C1 [vicagrel, reference compound], the “Platelet Aggregation (%)” value [1, 6] is listed as 20.0 ± 9.1%, the “antiplatelet effect (in words)” value ([1]; oral dose 7.8 μmol/kg) is listed as “potent inhibitors” and the “level of AM relative to clopidogrel” value [2] is listed as “four-fold”.
With COC(=O)[C@H](c1ccccc1Cl)N1CCc2sccc2C1 [clopidogrel, Clopidogrel] the “Platelet Aggregation (%)” value [1, 6] was 59.8 ± 8.4%, the “Platelet Aggregation (%)” value ([1]; ex vivo 2 h after oral dose 78 μmol/kg (clopidogrel bisulfate, active control)) was 15.8 ± 8.0 ^b % and the “antiplatelet effect (in words)” value ([1]; oral dose 7.8 μmol/kg) was “low activity”. For the same compound, the “antiplatelet effect (in words)” value ([1]; oral dose 78 μmol/kg) was “strong inhibitory effect”, the “contribution of CYP2C19 to the first step (to 2-oxoclopidogrel)” value [3] was 44.9% and the “contribution of CYP2C19 to the second step (2-oxoclopidogrel to AM)” value [3] was 20.6%. For the same compound, the “time after which concentration was below the limit of detection” value [4] was 70 min, the “proportion hydrolyzed by esterases to inactive clopidogrel acid” value [5] was 85% and the “proportion of an oral dose metabolized to inactive metabolites” value [5] was “more than 90%”.
For [2H]C([2H])([2H])OC(=O)[C@H](c1ccccc1Cl)N1CCc2sc(OC(=O)CCCCC)cc2C1 [Compound 10g, (S)-5-(1-(2-Chlorophenyl)-2-(methoxy-d3)-2-oxoethyl)-4,5,6,7-tetrahydrothieno[3,2-c]pyridin-2-yl hexanoate], the melting point was 49.4 to 52.7 °C, the “Platelet Aggregation (%)” value [1, 6] was 35.2 ± 7.7% and the “antiplatelet effect (in words)” value ([1]; oral dose 7.8 μmol/kg) was “potent antiplatelet activity”.
